Measured values reported in ChEMBL document CHEMBL6182949 (J Med Chem, 2025).
In brackets after ≈: the same amount, converted by molar mass. Activity calls are given as the source filed them. The calls are words filed in the database; no cut-off is given here.

Key:
[1] = AUClast in male C57BL/6 mouse at 2 mg/kg, iv measured up to 24 hrs by LC-MS/MS analysis; type: ADME, organism-based; conditions: in vivo
[2] = Tmax in Beagle dog at 10 mg/kg, po measured up to 24 hrs by LC-MS/MS analysis; type: ADME, organism-based, Canis lupus familiaris; conditions: in vivo
[3] = Cmax in Sprague-Dawley rat at 2 mg/kg, iv measured up to 24 hrs by LC-MS/MS analysis; type: ADME, organism-based; conditions: in vivo
[4] = molecular target: CYP2D6 (Homo sapiens, UniProt P10635); test: Inhibition of CYP2D6 in human liver microsome using dextromethorphan as substrate at 10 uM preincubated for 5 mins followed by NADPH addition and measured after 10 mins by LC-MS/MS analysis relative to control; type: ADME; conditions: human liver microsomes, probe dextromethorphan, time 15 min
Chain of CYP2D6 (P10635 whole entry): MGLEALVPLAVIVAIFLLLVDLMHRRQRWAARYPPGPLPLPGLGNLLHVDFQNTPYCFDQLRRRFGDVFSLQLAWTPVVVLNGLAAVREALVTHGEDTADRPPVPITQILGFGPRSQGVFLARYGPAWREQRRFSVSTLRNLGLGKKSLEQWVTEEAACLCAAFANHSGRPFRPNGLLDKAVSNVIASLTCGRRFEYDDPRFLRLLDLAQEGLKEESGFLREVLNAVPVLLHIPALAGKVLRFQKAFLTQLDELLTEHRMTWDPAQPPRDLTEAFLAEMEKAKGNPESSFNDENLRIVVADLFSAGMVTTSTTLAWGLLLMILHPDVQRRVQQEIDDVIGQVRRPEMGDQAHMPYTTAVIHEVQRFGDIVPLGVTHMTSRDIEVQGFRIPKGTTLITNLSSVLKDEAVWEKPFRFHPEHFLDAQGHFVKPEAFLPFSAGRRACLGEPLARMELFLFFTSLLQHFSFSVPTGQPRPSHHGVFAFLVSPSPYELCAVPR

[5] = molecular target: Protein cereblon/Zinc finger protein Aiolos (Homo sapiens) (UniProt Q96SW2+Q9UKT9); test: PROTAC activity at CRBN/IKZF3 in human PBMC cells assessed as induction of SALL4 degradation at 1 uM by Western blot analysis; type: cell-based
Chain of Protein cereblon/Zinc finger protein Aiolos (Homo sapiens) (Q96SW2 whole entry, looked up): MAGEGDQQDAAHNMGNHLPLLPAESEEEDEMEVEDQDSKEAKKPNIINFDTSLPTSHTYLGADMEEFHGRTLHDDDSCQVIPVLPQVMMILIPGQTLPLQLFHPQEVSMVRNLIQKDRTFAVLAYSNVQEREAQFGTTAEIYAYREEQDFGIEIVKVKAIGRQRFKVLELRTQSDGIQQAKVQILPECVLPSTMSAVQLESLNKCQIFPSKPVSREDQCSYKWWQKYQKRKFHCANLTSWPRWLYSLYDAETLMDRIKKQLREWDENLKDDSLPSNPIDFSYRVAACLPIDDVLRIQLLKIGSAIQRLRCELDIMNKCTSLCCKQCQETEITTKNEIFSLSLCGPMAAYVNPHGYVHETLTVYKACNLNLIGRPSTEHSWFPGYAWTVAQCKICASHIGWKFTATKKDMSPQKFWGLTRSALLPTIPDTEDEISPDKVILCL
Chain of Protein cereblon/Zinc finger protein Aiolos (Homo sapiens) (Q9UKT9 whole entry, looked up): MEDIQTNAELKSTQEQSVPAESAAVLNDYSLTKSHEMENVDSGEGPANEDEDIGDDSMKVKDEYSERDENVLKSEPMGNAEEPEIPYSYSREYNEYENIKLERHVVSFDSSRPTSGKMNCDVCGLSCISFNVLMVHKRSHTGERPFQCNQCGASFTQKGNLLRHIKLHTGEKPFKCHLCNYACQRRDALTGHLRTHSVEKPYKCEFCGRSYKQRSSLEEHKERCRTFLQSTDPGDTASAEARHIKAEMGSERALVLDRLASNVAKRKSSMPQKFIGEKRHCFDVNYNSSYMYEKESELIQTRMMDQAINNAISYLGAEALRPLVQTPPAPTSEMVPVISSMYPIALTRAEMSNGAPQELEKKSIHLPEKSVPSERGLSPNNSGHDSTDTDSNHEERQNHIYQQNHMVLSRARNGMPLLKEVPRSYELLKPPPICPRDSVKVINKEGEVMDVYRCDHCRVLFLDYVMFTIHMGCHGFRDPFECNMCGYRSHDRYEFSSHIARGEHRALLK

[6] = molecular target: T1, Protein cereblon/Interleukin-1 receptor-associated kinase 4 (Homo sapiens, UniProt Q9NWZ3+Q96SW2); test: PROTAC activity at CRBN/IRAK4 in human PBMC cells assessed as induction of IRAK4 degradation incubated for 24 hrs by HiBiT lytic reagent based analysis; type: cell-based
Target sequence in this assay (Q9NWZ3 whole entry): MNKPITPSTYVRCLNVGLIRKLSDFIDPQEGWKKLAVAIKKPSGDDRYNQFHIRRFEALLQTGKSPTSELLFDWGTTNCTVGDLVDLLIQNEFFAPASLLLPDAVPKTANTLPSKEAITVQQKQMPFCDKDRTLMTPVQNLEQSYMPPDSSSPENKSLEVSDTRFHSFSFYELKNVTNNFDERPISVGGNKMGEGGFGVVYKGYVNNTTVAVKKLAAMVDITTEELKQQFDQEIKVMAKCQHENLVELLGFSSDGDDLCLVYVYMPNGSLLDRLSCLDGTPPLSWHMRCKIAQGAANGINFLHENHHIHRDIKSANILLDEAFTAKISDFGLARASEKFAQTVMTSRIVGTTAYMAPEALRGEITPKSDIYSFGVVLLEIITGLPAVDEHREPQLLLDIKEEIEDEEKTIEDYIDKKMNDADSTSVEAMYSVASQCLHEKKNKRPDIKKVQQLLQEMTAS
Target sequence in this assay (Q96SW2 whole entry): as the sequence (Q96SW2 whole entry, looked up) above

[7] = Volume of distribution at steady state in Sprague-Dawley rat at 2 mg/kg, iv measured up to 24 hrs by LC-MS/MS analysis; type: ADME, organism-based; conditions: in vivo, read-out: Vdss
[8] = Permeability across apical to basal side in human Caco-2 cells incubated for 120 mins by LC-MS/MS analysis; type: ADME, cell-based; conditions: read-out: permeability
[9] = Oral bioavailability in male C57BL/6 mouse at 10 mg/kg measured up to 24 hrs by LC-MS/MS analysis; type: ADME, organism-based; conditions: in vivo
[10] = Metabolic stability monkey hepatocyte assessed as half life at 1 uM measured up to 120 mins by LC-MS/MS analysis; type: ADME, cell-based, Macaca mulatta; conditions: rhesus monkey, hepatocytes
[11] = molecular target: Protein cereblon/Interleukin-1 receptor-associated kinase 4 (Mus musculus) (UniProt Q8C7D2+Q8R4K2); test: In-vivo PROTAC activity at C57BL/6 mouse assessed as reduction in IRAK4 level in spleen at 30 mg/kg, po measured after 24 hrs by Western blot analysis; type: functional, organism-based; parameters: scale not given: the % may be the effect or the level left
Chain of Protein cereblon/Interleukin-1 receptor-associated kinase 4 (Mus musculus) (Q8C7D2 whole entry, looked up): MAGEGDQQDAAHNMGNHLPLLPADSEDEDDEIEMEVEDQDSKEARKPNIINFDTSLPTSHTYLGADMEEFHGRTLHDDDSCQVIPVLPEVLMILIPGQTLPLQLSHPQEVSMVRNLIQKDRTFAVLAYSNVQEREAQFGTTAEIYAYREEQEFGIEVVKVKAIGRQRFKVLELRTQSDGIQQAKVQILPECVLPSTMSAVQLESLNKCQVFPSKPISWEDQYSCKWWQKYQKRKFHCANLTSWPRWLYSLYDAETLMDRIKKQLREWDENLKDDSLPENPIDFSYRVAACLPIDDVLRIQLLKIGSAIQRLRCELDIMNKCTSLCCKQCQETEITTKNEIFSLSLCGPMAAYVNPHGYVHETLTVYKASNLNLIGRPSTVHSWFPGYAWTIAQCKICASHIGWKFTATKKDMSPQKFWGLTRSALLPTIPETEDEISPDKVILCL
Chain of Protein cereblon/Interleukin-1 receptor-associated kinase 4 (Mus musculus) (Q8R4K2 whole entry, looked up): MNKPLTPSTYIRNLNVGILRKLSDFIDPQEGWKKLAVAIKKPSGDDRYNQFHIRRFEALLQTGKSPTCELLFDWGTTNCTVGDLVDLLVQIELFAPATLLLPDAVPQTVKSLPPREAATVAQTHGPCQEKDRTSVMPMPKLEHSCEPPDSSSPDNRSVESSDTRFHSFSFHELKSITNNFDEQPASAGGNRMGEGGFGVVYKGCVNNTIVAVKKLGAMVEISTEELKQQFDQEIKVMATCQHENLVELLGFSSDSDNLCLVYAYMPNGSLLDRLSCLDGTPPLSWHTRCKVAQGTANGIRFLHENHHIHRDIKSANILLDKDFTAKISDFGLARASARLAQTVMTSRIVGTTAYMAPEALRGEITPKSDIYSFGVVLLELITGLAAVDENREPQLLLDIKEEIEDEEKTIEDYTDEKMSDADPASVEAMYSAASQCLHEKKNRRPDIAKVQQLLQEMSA

[12] = Metabolic stability human hepatocyte assessed as half life at 1 uM measured up to 120 mins by LC-MS/MS analysis; type: ADME, cell-based; conditions: hepatocytes
[13] = molecular target: T1, Protein cereblon/Interleukin-1 receptor-associated kinase 4; test: PROTAC activity at CRBN/IRAK4 in human THP-1 cells assessed as induction of IRAK4 degradation incubated for 24 hrs by HiBiT lytic reagent based analysis relative to control; type: cell-based
Target sequence in this assay (Q96SW2 whole entry, looked up): as the sequence (Q96SW2 whole entry, looked up) above
Target sequence in this assay (Q9NWZ3 whole entry, looked up): as the sequence (Q9NWZ3 whole entry) above

[14] = molecular target: T2, CYP1A2 (Homo sapiens, UniProt P05177); test: Inhibition of CYP1A2 in human liver microsome using phenacetin as substrate at 10 uM preincubated for 5 mins followed by NADPH addition and measured after 20 mins by LC-MS/MS analysis relative to control; type: ADME; conditions: human liver microsomes, probe phenacetin, time 25 min
T2 sequence (P05177 whole entry): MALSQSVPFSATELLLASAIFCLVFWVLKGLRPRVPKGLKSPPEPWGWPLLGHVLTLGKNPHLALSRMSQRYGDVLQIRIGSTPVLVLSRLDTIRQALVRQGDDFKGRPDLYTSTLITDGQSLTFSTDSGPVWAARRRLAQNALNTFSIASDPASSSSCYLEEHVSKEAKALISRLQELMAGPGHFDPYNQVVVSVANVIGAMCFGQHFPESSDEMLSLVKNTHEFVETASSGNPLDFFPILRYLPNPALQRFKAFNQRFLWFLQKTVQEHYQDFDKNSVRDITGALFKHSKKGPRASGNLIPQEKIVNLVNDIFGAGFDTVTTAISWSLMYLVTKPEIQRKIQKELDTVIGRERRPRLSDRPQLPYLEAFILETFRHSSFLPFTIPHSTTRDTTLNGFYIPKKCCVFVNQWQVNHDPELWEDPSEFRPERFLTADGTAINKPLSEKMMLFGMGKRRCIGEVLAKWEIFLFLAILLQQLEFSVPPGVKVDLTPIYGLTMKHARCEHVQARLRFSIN

[15] = molecular target: T3, CYP2B6 (Homo sapiens, UniProt P20813); test: Inhibition of CYP2B6 in human liver microsome using bupropion as substrate at 10 uM preincubated for 5 mins followed by NADPH addition and measured after 10 mins by LC-MS/MS analysis relative to control; type: ADME; conditions: human liver microsomes, probe bupropion, time 15 min
T3 sequence (P20813 whole entry): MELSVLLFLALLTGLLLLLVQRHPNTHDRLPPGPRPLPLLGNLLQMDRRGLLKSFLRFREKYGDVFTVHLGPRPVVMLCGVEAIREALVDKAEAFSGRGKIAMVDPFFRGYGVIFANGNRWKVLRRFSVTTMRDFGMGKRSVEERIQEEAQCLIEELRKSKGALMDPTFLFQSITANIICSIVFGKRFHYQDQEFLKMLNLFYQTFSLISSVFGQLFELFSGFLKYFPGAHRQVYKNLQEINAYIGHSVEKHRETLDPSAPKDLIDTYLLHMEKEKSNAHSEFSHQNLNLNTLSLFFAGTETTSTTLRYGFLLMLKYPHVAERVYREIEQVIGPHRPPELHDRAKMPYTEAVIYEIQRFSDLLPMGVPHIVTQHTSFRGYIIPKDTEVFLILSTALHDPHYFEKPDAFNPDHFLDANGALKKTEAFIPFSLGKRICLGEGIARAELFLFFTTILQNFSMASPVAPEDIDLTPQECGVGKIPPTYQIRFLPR

[16] = Half life in Sprague-Dawley rat at 2 mg/kg, iv measured up to 24 hrs by LC-MS/MS analysis; type: ADME, organism-based; conditions: in vivo
[17] = Plasma protein binding in human assessed as unbound fraction incubated for 2 hrs by rapid equilibrium dialysis; type: ADME, cell-free
[18] = AUClast in cynomolgus monkey at 1 mg/kg, iv measured up to 24 hrs by LC-MS/MS analysis; type: ADME, organism-based, Macaca fascicularis; conditions: in vivo
[19] = molecular target: Cereblon/Ikaros (Homo sapiens) (UniProt Q96SW2+Q13422); test: PROTAC activity at CRBN/IKZF1 in human PBMC cells assessed as induction of SALL4 degradation at 1 uM by Western blot analysis; type: cell-based
[20] = Plasma protein binding in mouse assessed as unbound fraction incubated for 2 hrs by rapid equilibrium dialysis; type: ADME, cell-free
[21] = Efflux ratio of permeability across basolateral to apical over apical to basolateral side in human Caco-2 cells measured up to 120 mins by LC-MS/MS analysis; type: ADME, cell-based
[22] = Volume of distribution at steady state in Beagle dog at 2 mg/kg, iv measured up to 24 hrs by LC-MS/MS analysis; type: ADME, organism-based, Canis lupus familiaris; conditions: in vivo
[23] = Kinetic solubility of compound in FaSSIF at pH 6.5 incubated for 2 hr by LC-MS analysis; type: physicochemical; conditions: read-out: Kinetic_solubility
[24] = AUClast in Sprague-Dawley rat at 2 mg/kg, iv measured up to 24 hrs by LC-MS/MS analysis; type: ADME, organism-based; conditions: in vivo
[25] = Tmax in Sprague-Dawley rat at 10 mg/kg, po measured up to 24 hrs by LC-MS/MS analysis; type: ADME, organism-based; conditions: in vivo

SMILES: Cn1c(=O)n(C2CCC(=O)NC2=O)c2cccc(C#CCO[C@H]3CC[C@H](CN4CCC5(CC4)Cc4cc(NC(=O)c6coc7cccnc67)c(N6CCC(CO)CC6)cc4O5)CC3)c21 (stereo not given in full)
- AUC(0-t) at 24 h [1]: 10600 ng·h/mL
- Tmax [2]: 4 h
- Cmax [3]: 14.2 ng/mL
- inhibition at 10 min, 10 µM [4]: 13.8%
- Activity [5]: inactive
- DC50 [6]: 0.43 nM
- Vd [7]: 2.66 L/kg
- Papp A→B at 2 h [8]: 0.09 ×10⁻⁶ cm/s
- bioavailability [9]: 45%
- half-life at 1 µM [10]: > 6.18 h
- Activity [11]: > 80%
- half-life at 1 µM [12]: 2.5 h
- Emax [13]: 94%
- inhibition at 20 min, 10 µM [14]: 8.32%
- inhibition at 10 min, 10 µM [15]: 0.13%
- half-life [16]: 4 h
- Fu [17]: < 0.08%
- AUC(0-t) at 24 h [18]: 1820 ng·h/mL
- Activity [19]: inactive
- Fu [20]: 0.09%
- efflux ratio at 2 h [21]: 2.22
- Vdss [22]: 73 L/kg
- solubility kinetic at 2 h [23]: 13.3 µg/mL (≈ 15.3 µM)
- AUClast [24]: 25.89 ng·h/mL
- Tmax [25]: 6 h
